This is an account of results in US20200276186A1, “USE OF […] TREATING COCAINE ADDICTION, PRURITIS, AND SEIZURE DISORDERS” (PHOENIX […], INC., priority 2017, published 2020).

The test relates to patient with atopic dermatitis. The test is described as follows: Topical treatment of itching in atopic dermatitis. To be noted: human, indomethacin cream 7.5 mg/g at 75 μg/cm^2. The format is in vivo. On the procedure: An aqueous solution (10-100 μg/ml) of a compound of Formula (I) is applied topically to the skin lesions on the arms or legs of a patient with atopic dermatitis which had caused severe itching (ranked as “+++” by the patient prior to treatment). The drug solution is applied on five spots with a volume of about 50 μl per 10 cm^2, which was equivalent to a topical dose of […]. As a control, indomethacin cream (concentration of 7.5 mg/g) applied at a dose of 75 μg/cm^2 in the same manner. Itching intensity is evaluated immediately after treatment, 5 minutes after treatment and at hourly time points for several hours following treatment. […] Itch relief typically continues for several hours following treatment.

As to `COc1ccc2c(c1)c(CC(=O)O)c(C)n2C(=O)c1ccc(Cl)cc1` [indomethecin, indomethacin], the “Effect on itch (control)” value was “reduces but fails to eliminate itch”.
